# Measured values published in patent publication US10322137B2, “Platinum compounds, compositions, and uses thereof” (PLACON THERAPEUTICS, INC., priority 2014, dated 2019).
# Legend:
# H460 tumors = test: Tumor platinum levels in H460 tumor-bearing nude mice (ICP-MS); assay type: in vivo; details: dosed at 4 mg/kg, 24-hour time point
# Experimental: To examine the ability of compounds disclosed herein to accumulate in tumors, a murine cancer model was used. Animals were inoculated with 5×10^5 H460 […] lung cancer cells via subcutaneous injection to the flank. Tumors were allowed to reach an approximate volume of ˜500 mm^3. Animals were then randomized into treatment groups of 3 animals per time point and were dosed at 4 mg/kg. The 24-hour time point was used as a benchmark across compounds.
# Tumor platinum levels were determined by inductively coupled plasma mass spectrometry (ICP-MS). Tumors were excised from animals and dissolved in fuming nitric acid (60% w/w) by adding four parts nitric acid to 1 part tumor w/w and heating overnight at 60° C. The resulting digest was diluted 1:10 in ICP-MS analysis buffer (1% nitric acid, 2% Triton® X-100), and directly introduced into the ICP-MS unit by peristaltic pump. The end dilution factor for the samples as introduced to the ICP-MS was 50×.
# [1] = test system: MX-1 human breast cancer xenograft (BRCA1 and BRCA2 mutant); test: MX-1 human breast cancer xenograft study; assay type: in vivo, mice
# Experimental: (§1) Tumor measurements were taken twice weekly, using vernier calipers.
# (§2) All statistical analyses were performed using GraphPad PRISM®. Version 6.00.
# Tumor volumes of MX-1 induced xenografts in mice were measured after multiple intravenous doses of compound 8 at 15 mg/kg at day 1, day 5, day 8 and day 12 (two times per week for two weeks) for the main study group. […] MX-1 cell line is estrogen receptor negative and Her2 normal. It is BRCA1 and BRCA2 mutant: BRCA1 truncating mutation (3363delGAAA) and BRCA2 mutations (16864A>C, Asn289His, and 22184A>G, Asn991Asp). Satellite groups (n=5) were collected on Day 9 for platinum tumor measurements. […] Only one tumor from the 10 mg/kg group began to grow back at on Day 71, with a volume of 39 mm^3 at end of study, Day 75.
# [2] = test system: A2780 (ovarian) xenografts; details: compound 8 at 20 mg/kg, FIG. 20
# Experimental: In these experiments, the ability of compounds to affect the growth of human Calu-6 NSCLC (non-small cell lung cancer) A2780 (ovarian), MIA Paca-2 (pancreatic) and BxPC-3 (pancreatic) xenografts was tested. […] For the MIA Paca-2, BxPC-3 in vivo studies, the tumor material was maintained by serial engraftment in female nude NCR nude mice. To initiate tumor growth, a 1 mm^3 fragment was implanted subcutaneously in the right flank of each test animal. The animals were 9 and 10-11 weeks old at the time the study started for BxPC-3 and MIA Paca-2 models, respectively. For the MX-1 in vivo studies, tumor material was maintained by serial engraftment in athymic nude mice. To initiate tumor growth a 3×3 mm pieces implanted subcutaneously in the right flank of each test animal. The animals were 5 weeks old at the time of implantation.
# Tumor measurements were taken twice weekly, using vernier calipers. Tumor volume was calculated using the formula: V=0.5×width×width×length.
# When tumors approached a volume of 100 mm^3, mice were randomized into three groups of ten animals. […] Mice were dosed twice weekly for the duration of the study. […] Twenty-four hours after the final dose tumor volumes were measured again for calculation of tumor growth inhibition. […] Final tumor volumes were analyzed using with a one-way analysis of variance and Tukey multiple comparison test.
# [3] = test system: NCI-H520 lung cancer (NSCLC) model; test: NCI-H520 multiple dose study: tumor volume, platinum levels, IHC and TUNEL; assay type: in vivo; details: day 10, FIG. 24 and 25
# Experimental: Tumor volumes and platinum levels were tracked over a course of 32 days after treatment of multiple doses of compound 8 (dosed at days 0, 3, 7 and 10) in lung cancer (NSCLC) model NCI-H520. Compound 8 was dosed at 15 mg/kg.
# Cell dedifferentiation and apoptosis were studied with immunohistochemical (IHC) and TUNEL stainings.
# [4] = in vivo
# Experimental: (§3) Platinum concentrations in rat (n=3) and dog (n=3) were both measured in a course of 100 hours and 400 hours, respectively.
# [5] = in vivo; remark: listed apart in the source
# Experimental: as §3
# [6] = target: albumin tryptic peptide T3 (Homo sapiens, UniProt P02768); test: LC MS/MS analysis with albumin tryptic peptide T3; assay type: binding; details: FIG. 11B
# Sequence of albumin tryptic peptide T3 (P02768 45-65 limits assumed): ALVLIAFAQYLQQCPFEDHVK
# Text: Signals of T3 endogenous conjugates and T3-Compound 8 conjugates were observed and were evidence that Compound 8 binds to T3.
# [7] = test system: BxPC-3 (pancreatic) xenografts, KRAS wild type; test: BxPC-3 xenograft tumor growth inhibition; assay type: in vivo, mice; details: Table 4-2; compound 5 at 15 mg/kg iv twice weekly
# Experimental: as §1, §2
molecule,measurement,setting,value
"N.N.[Cl][Pt][Cl] [Cisplatin, reference compound]",Platinum in tumor,H460 tumors,0.27 mM/mmole/kg platinum dosed
same,TGI % at Day 12,"[1]; 3 mg/kg, day 1, 5, 8, 12",95.1%
same,"tumor regrowth at end of study, Day 75","[1]; cisplatin treated group, 3 mg/kg",no tumor regrowth
CC(=O)[O][Pt]([NH2])([NH2])([Cl])([Cl])[O]C(=O)NCCCCCN1C(=O)C=CC1=O [Compound 8],tumor inhibition versus cisplatin,[2],superior efficacy in tumor inhibition compared to cisplatin
same,"apoptosis and dedifferentiation (IHC, TUNEL)",[3],significant and sustained increase in apoptosis and dedifferentiation
same,Half-life Dog,[4],174 h
same,Half-life Rat,[5],44 h
same,binding to albumin tryptic peptide T3,[6],binds to T3
same,"tumor regrowth at end of study, Day 75",[1]; 15 mg/kg group,no tumor regrowth
same,tumor volume outcome,[1]; day 12,Tumor disappeared
same,platinum delivered to the tumor versus cisplatin,"[1]; satellite groups, Day 9, FIG. 30",higher concentrations of platinum to the tumor than cisplatin
O=C1[O][Pt]2([NH][C@@H]3CCCC[C@H]3[NH]2)[O]C1=O [Oxaliplatin],Platinum in tumor,H460 tumors,0.12 mM/mmole/kg platinum dosed
same,TGI %,[7],21.0%
"acetate 6-(2,5-dioxo-2H-pyrrol-1(5H)-yl) hexanoate oxaliplatin [Compound 1]",Platinum in tumor,H460 tumors,0.57 mM/mmole/kg platinum dosed
